Laboratory results: patent publication US20210132065A1, “MAMMALIAN MHC PEPTIDE DISPLAY AS AN EPITOPE SELECTION TOOL FOR VACCINE DESIGN” (ETH Zürich, priority 2018, published 2021)
Where two headings read alike, the source gives them in different places. Where no end group is shown, it is not given here.

Legend:
HLA DRB 1-4 = settings: published studies; cited from earlier work
HLA-DRB1_4 = format: cell-based, human; settings: for MCR surface expression: peptide covalently linked to beta chain, anti-HLA-DR APC antibody, FACS

Substance | presentation by HLA (HLA DRB 1-4) | MCR surface expression (HLA-DRB1_4) | further results
MP1 103-117: MP1 peptide comprising amino acids 103-117, known from published studies (Schmid et al Immunity 2007) (LKREITFHGAKEISL; UniProt P03485 103-117, looked up, fragment) | efficiently presented |  | 
MP1 107-121: MP1 peptide comprising amino acids 107-121, known from published studies (Schmid et al Immunity 2007) (ITFHGAKEISLSYSA; UniProt P03485 107-121, looked up, fragment) | efficiently presented |  | 
MP162-72: influenza Matrix Protein 1-derived peptide comprising amino acids 62-72, covalently linked to the HLA beta chain of the MCR (FVFTLTVPSER; also: covalently linked to HLA beta chain of the MCR; UniProt P03485 62-72, looked up, fragment) |  | not the other HLAs tested | 
MP1103-120: influenza Matrix Protein 1 peptide, amino acids 103-120, covalently linked to the HLA beta chain of the MCR (LKREITFHGAKEISLSYS; also: covalently linked to HLA beta chain of the MCR; UniProt P03485 103-120, looked up, fragment) |  | efficient surface expression | MCR surface expression (HLA-DRB1_4; listed as MP1103-121): high surface expression
MP1107-117: core epitope of influenza Matrix Protein 1, amino acids 107-117, tested within peptides with different flanking regions (ITFHGAKEISL; UniProt P03485 107-117, looked up, fragment) |  |  | presentation (MCR surface expression) (HLA-DRB1_4; FIG. 6, anti-CD3e or anti-HLA-DR PE antibodies, peptides containing the core epitope with different flanking regions): efficiently be presented
